Measured values from paper PMC6717892 (The EMBO Journal, 2019).

Target: T1, Bd1971 (Bdellovibrio bacteriovorus, UniProt Q6MLN6)
T1 construct: ITC: Bd1971ΔEAL (residues 1–150); crystal: full-length
Experiment: ITC (two-site model) and co-crystal structure; also activates phosphodiesterase activity (K half […])
Assay type: binding

T1 sequence (Q6MLN6 entry or part of it): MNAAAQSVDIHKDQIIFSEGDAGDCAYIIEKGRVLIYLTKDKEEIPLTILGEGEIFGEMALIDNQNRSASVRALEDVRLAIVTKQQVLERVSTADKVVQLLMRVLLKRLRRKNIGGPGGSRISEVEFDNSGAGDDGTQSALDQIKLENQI

Kd: 769 nM
SMILES: Nc1nc2c(ncn2[C@@H]2O[C@@H]3COP(=O)(O)O[C@H]3[C@H]2O)c(=O)[nH]1 [cGMP]
